The target in this assay is T1, hT2R54 (Homo sapiens, UniProt P59534).
T1 construct: expressed in transfected cells; it overexpresses a promiscuous G protein
T1 sequence (P59534 1-338): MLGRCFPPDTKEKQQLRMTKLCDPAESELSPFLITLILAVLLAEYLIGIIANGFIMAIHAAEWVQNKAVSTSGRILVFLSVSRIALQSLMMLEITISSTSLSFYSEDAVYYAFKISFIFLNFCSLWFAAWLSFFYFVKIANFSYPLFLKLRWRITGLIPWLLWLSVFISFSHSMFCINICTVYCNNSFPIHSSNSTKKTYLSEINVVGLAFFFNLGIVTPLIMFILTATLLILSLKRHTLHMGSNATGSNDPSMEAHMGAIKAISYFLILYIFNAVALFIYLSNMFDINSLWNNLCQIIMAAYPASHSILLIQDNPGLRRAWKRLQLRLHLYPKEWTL
Briefly: Cell-based assay for measuring hT2R54 inhibition (FLIPR calcium, Fluo4AM, acetaminophen as bitter agonist). As to conditions: read-out: hT2R54 IC50. The method in brief: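 Cells stably co-expressing hT2R54 and a promiscuous G protein were loaded with Fluo4AM and given acetaminophen dose series, alone or with fixed concentrations of test compound. On FLIPR, baseline was recorded for 10 s and fluorescence for 3 min after addition. IC50 is the concentration halving the acetaminophen-alone response.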

Where [1] appears, read: Table 4, cells stably expressing hT2R54 and a promiscuous G protein.
The mark [2] stands for this setting: Table 5, cells stably expressing hT2R54 and a promiscuous G protein.

pIC50: −log10 of the molar value. Read-outs that look alike come from different tables or passages of the source. A value given as a limit tells only on which side of the number the result lay.

In the case of `COc1cc2c(cc1NC(=O)CN1CCSCC1)OCO2` [compound 442], under setting [1], the pIC50 was 6.70.
Same read-out and setting: as for `COc1cc2c(cc1NC(=O)CN1CC(C)OC(C)C1)OCO2` (stereo not drawn) [compound 443], the figure is 6.49.
Turning to `CCOC(=O)C1CN(CC(=O)Nc2cc3c(cc2OC)OCO3)CCO1` (stereo not drawn) [compound 444], the pIC50 under setting [1] was 6.30.
On the same count and under the same terms, as for `CCOC(=O)C1COCCN1CC(=O)Nc1cc2c(cc1OC)OCO2` (stereo not drawn) [compound 445], the figure is 6.28.
On the same count and under the same terms, as for `COc1cc2c(cc1NC(=O)C(C)N1CCN(C(=O)OC(C)(C)C)CC1)OCO2` (stereo not drawn) [compound 446], the figure is 6.72; as for `CCc1cc2c(cc1NC(=O)CN1CCOCC1)OCO2` [compound 447], below 5.00.
Regarding `CCc1cc2c(cc1NC(=O)CN1CCN(C(=O)OC(C)(C)C)CC1)OCO2` [compound 448], the pIC50 under setting [1] was 6.15.
For `COc1cc2c(cc1NC(=O)CN1CCOCC1)CCC2` [compound 449], the negative-log IC50 (pIC50) under setting [1] was 6.09.
On to `CCNC(=O)C1CCCN(CC(=O)Nc2cc3c(cc2OC)OCO3)C1` (stereo not drawn) [compound 450], for which, under setting [2], the pIC50 was 6.18.
`COc1cc2c(cc1NC(=O)CN(C)CCC(=O)NCc1ccccc1)OCO2` [compound 451]: under setting [2], the negative-log IC50 (pIC50) is 6.39.
As to `COc1cc2c(cc1NC(=O)CN1CCCC(C(=O)NCc3ccccc3)C1)OCO2` (stereo not drawn) [compound 452], the pIC50 under setting [2] was 6.22.
Regarding `CNC(=O)C1CCCN(CC(=O)Nc2cc3c(cc2OC)OCO3)C1` (stereo not drawn) [compound 453], under setting [2], the pIC50 was 6.01.
As to `CC(=O)c1cc2c(cc1NC(=O)CC1CCN(C(=O)c3ccncc3)CC1)OCO2` [compound 454], the pIC50 (Table 8) is 6.52.
On the same count and under the same terms, in the case of `CC(=O)c1cc2c(cc1NC(=O)CC1CCCN(C(=O)c3cc(O)cc(O)c3)C1)OCO2` (stereo not drawn) [compound 455] it was 5.22; in that of `CC(=O)c1cc2c(cc1NC(=O)CC1CCCN(C(=O)c3ccc(O)c(O)c3)C1)OCO2` (stereo not drawn) [compound 456], 5.89.
In the case of `CC(=O)c1cc2c(cc1NC(=O)CC1CCCN(C(=O)c3ccc(O)cc3O)C1)OCO2` (stereo not drawn) [compound 457], the pIC50 (Table 8) is 6.85.
For the compound `CC(=O)c1cc2c(cc1NC(=O)CC1CCCN(C(=O)c3cc(O)ccc3O)C1)OCO2` (stereo not drawn) [compound 458], the pIC50 (Table 8) is 6.80.
In the case of `CC(=O)c1cc2c(cc1NC(=O)CC1CCN(C(=O)c3cnn[nH]3)CC1)OCO2` [compound 459], the pIC50 (Table 8) is 7.02.
Consider `CC(=O)c1cc2c(cc1NC(=O)CC1CCN(C(=O)c3ncn[nH]3)CC1)OCO2` [compound 460], for which the pIC50 (Table 8) was 6.52.
On the same count and under the same terms, as for `CC(=O)c1cc2c(cc1NC(=O)CC1CCN(C(=O)c3cc[nH]n3)CC1)OCO2` [compound 461], the figure is 6.82; as for `CC(=O)c1cc2c(cc1NC(=O)CC1CCN(C(=O)c3ncc[nH]3)CC1)OCO2` [compound 462], 7.52.
As for `CC(=O)c1cc2c(cc1NC(=O)CC1CCN(C(=O)c3c[nH]c(C)n3)CC1)OCO2` [compound 463], under “Table 8”, the pIC50 is 6.40.
Still for that read-out and setting: as for `CC(=O)c1cc2c(cc1NC(=O)CC1CCN(C(=O)c3n[nH]cc3C)CC1)OCO2` [compound 464], the figure is 6.70; as for `CC(=O)c1cc2c(cc1NC(=O)CC1CCN(C(=O)c3nc(C)c[nH]3)CC1)OCO2` [compound 465], 7.34; as for `CC(=O)c1cc2c(cc1NC(=O)CC1CCN(C(=O)c3cc(C)on3)CC1)OCO2` [compound 466], 6.15.
Regarding `CC(=O)c1cc2c(cc1NC(=O)CC1CCN(C(=O)c3ccc(C)o3)CC1)OCO2` [compound 467], the negative logarithm of the IC50 (pIC50) (Table 8) was 7.24.
For the compound `COCc1ccc(C(=O)N2CCC(CC(=O)Nc3cc4c(cc3C(C)=O)OCO4)CC2)o1` [compound 468], where the note is “Table 8”, the pIC50 is 7.15.
`COCC(=O)N1CCC(CC(=O)Nc2cc3c(cc2C(C)=O)OCO3)CC1` [compound 469]: the pIC50 (Table 8) is 6.30.
Regarding `COCCOCC(=O)N1CCC(CC(=O)Nc2cc3c(cc2C(C)=O)OCO3)CC1` [compound 470], the pIC50 (Table 8) was 6.15.
As to `CC(=O)c1cc2c(cc1NC(=O)CC1CCN(C(=O)[C@H]3CCCO3)CC1)OCO2` [compound 471], under “Table 8”, the pIC50 is 6.52.

Broadly, the pIC50 is the negative decadic logarithm of the IC50, by convention in mol/L.

For the origin of these results see patent publication US12295396B2, “Antagonists of T2R54 and compositions and uses thereof” (Firmenich Incorporated, priority 2018, dated 2025).
